Source: patent US7732475B2, “Histone deacetylase inhibitors” (Takeda San Diego, Inc., priority 2005, dated 2010)

Target: HDAC2 (Homo sapiens, UniProt Q92769)
Assay: HDAC2 fluorescence inhibition assay (tBoc-Lys(Ac)-AMC)

Sequence of HDAC2 (Q92769 with tags, fused parts or gaps): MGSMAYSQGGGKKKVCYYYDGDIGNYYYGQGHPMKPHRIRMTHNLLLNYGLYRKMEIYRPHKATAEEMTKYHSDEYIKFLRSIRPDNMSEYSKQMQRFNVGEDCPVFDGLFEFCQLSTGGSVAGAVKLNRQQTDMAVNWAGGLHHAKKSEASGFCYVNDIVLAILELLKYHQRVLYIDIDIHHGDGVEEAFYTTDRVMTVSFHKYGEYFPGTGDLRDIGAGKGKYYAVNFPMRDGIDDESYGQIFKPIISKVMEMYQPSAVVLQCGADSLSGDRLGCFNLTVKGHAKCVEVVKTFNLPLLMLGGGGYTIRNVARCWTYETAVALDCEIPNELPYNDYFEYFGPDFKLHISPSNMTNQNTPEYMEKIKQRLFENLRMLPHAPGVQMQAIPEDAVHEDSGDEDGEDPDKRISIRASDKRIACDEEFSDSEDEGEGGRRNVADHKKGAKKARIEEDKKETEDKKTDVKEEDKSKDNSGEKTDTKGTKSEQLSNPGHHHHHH

For CCNC(=O)c1cnn(Cc2ccc(C(=O)Nc3ccccc3N)cc2)c1 [Example 135, 1-(4-(2-aminophenylcarbamoyl)benzyl)-N-ethyl-1H-pyrazole-4-carboxamide], which IC50 is on record?
The IC50 was 50 to 100 nM.
